We go through one compound from patent publication US5739158A, “Nitrogen-containing cyclohetero cycloalkylaminoaryl derivatives for CNS disorders” (The United States of America as represented by the …, priority 1992, dated 1998).

In assay [1] the target is T1, sigma receptor (Rattus norvegicus, UniProt Q9R0C9).
T1 construct: Brains from male Sprague-Dawley rats were homogenized; from tissue; host or cells: rat brain crude membranes (male Sprague-Dawley)
Put plainly: Radioreceptor assay in rat brain homogenate, displacement of [3H]-(+)-3-PPP. To be noted: rat brain membranes; 2 nM [3H]-(+)-3-PPP; 1 hr, room temperature; units ± SEM; read-out: Ki apparent. It is filed as binding. The method, then: Acad. Sci., 83, 8784-8788, 1986] to determine the relative potency of the compounds interacting with the sigma receptor. To determine the effects of the compounds in a sigma receptor assay, crude membrane preparations were prepared as follows. Brains from male Sprague-Dawley rats were homogenized in 10 volumes (wt/vol) of 0.32M sucrose, using a Polytron grinder. The homogenate was centrifuged at 900×G for 10 minutes at 4° C. The supernatant was collected and centrifuged at 22,000×g for 20 minutes at 4° C. The pellet was resuspended in 10 volumes of 50 mM Tris/HCl buffer (pH 7.4) and centrifuged at 22,000×g for 20 minutes at 4° C. The pellet was resuspended in 5 mM Tris/HCl buffer (pH 7.4) to give a final concentration of 250 mg/ml of the crude material. Incubation tubes were prepared in triplicate and contained 0.1 ml of tissue suspension, 2 nM of [^3 H]-(+)-1-propyl-3-(3-hydroxyphenyl)piperidine {[^3 H]-3-(+)-PPP}, and varying concentrations of the displacing ligand (0.1-1000 nM) in a final volume of 0.5 ml. After a 1 hr incubation at room temperature, the contents of the test tubes were filtered through GS filter paper which had been presoaked for at least 2 hours in 0.05% polyethyleneamine. The test tubes were rinsed three times with Tris/HCl buffer. Radioactivity on the filters was determined and […] were calculated from inhibition curves using the method of Cheng and Prusoff [Biochem. Pharmacol., 22, 3099-3108, 1973].
In general terms: Displacement assays read how much labelled ligand stays bound in the presence of the test substance.

The target of assay [2] is T2, sigma receptors (Cavia porcellus, UniProt Q60492).
T2 construct: crude synaptosomal (P2) membrane fraction of guinea pig brain for sigma receptors; tissue Pel-Freeze, Rogers, Ak; host or cells: guinea pig brain minus cerebellum, crude synaptosomal (P2) membranes
T2 sequence (Q60492 whole entry): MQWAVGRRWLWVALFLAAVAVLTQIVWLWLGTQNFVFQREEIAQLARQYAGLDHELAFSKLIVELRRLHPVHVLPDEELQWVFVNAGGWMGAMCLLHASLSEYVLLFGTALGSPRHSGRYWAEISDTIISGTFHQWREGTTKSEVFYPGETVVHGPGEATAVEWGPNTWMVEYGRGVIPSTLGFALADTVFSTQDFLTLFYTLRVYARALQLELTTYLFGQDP
The experiment in a line: Radioreceptor assay in guinea pig brain homogenate (P2 membranes), [3H]-(+)-3-PPP. It is filed as binding.

Assay [3] deals with apomorphine-induced climbing. Put plainly: Blockage of apomorphine-induced climbing. To be noted: 10 mg/kg; apomorphine 2 mg/kg s.c.; i.p. or s.c. pretreatment. It is filed as in vivo, mouse (Swiss-Webster). The method, then: Compounds of the invention were evaluated for their ability to block apomorphine-induced climbing. The evaluation of the compounds followed the method outlined by Protais [Psychopharmcol., 50, 1-6, 1976]. Swiss-Webstermice, weighing 20-25 g, are pretreated with the compounds of the invention by i.p. or s.c. administration at various times before 2 mg/kg apomorphine is administered s.c. in a volume of 1 ml/kg. All test compounds are administered in a volume of 10 ml/kg. Mice are rated at 10 and 20 minutes after apomorphine administration using the following rating scale: (0) forepaws on the floor, (1) forefeet holding the bars, and (2) four paws holding bars. Dose-response curves are analyzed by a computerized Finney assay [Statistical Methods in Biological Assays, 2nd Edn., Hatner Pub. Co., New York (1964)].

In assay [4] the test system is CA1 region of the hippocampus. Put plainly: Forebrain ischemia assay (bilateral carotid occlusion). The format is in vivo, Mongolian gerbil. To be noted: 50 mg/kg i.p. 30 minutes prior to carotid occlusion (15 min); 7 days; p<0.01. The method, then:
Male Mongolian gerbils, 50-70 gm, were used as subjects. Compound No. 8 (50 mg/kg) was injected i.p. 30 minutes prior to carotid occlusion into 6 gerbils. In preparation for surgical procedures, the animals were lightly anesthetized with halothane and placed upside down on a heated pad with their snout within a nosecone. Nitrous oxide (70%): oxygen (30%) plus 0.5% halothane was circulated through the nosecone to provide continuous anesthesia throughout the surgical procedure. A midline incision was made in the neck and the carotid arteries were exposed. A length of suture thread was placed under each carotid. The thread was then tightened around each carotid and pressure applied to the thread to insure flow as occluded. Flow was occluded for 15 minutes and then the thread was removed. The carotids were visually inspected to confirm that reflow had occurred. The wound was then closed with autoclips and the gerbils allowed to recover. Following surgery, the gerbils were kept alive for 7 days. […] The degree of lesion in the CA1 region of the hippocampus was quantified by counting the pyramidal cell bodies in a 0.5 mm length of CA1 on the section corresponding to P 1.7 mm in the atlas of Loskota, Lnax and Verity [W. J. Loskota et al, A Stereotaxic Atlas of the Mongolian Gerbil Brain, Ann Arbor Science Publishers, Ann Arber, p. […]

T1 sequence (Q9R0C9 whole entry): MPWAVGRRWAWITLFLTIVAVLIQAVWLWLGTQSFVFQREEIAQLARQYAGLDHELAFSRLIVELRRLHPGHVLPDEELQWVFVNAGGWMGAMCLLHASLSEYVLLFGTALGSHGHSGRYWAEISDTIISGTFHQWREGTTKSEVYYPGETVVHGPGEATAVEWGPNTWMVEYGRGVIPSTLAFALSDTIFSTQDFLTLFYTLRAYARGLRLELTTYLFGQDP

For `CN(CCc1ccc(Cl)c(Cl)c1)[C@@H]1CCCC[C@@H]1N1CCCC1` [Compound No. 8, 1R,2S-(+)-cis-N-[2-(3,4-dichlorophenyl)ethyl]-N-methyl-2-(1-pyrrolidinyl)cyclohexylamine], the Ki in assay [1] was 20 ± 1 nM; in assay [2], 6 ± 3 nM. The “Blockage of apomorphine-induced climbing” value in assay [3] is reported as “completely blocked”. Also, the “Cell loss in CA1 region of hippocampus” value in assay [4] is on record as “significantly reduced”.
